Laboratory results published in patent US10966426B2, “Herbicidal compositions comprising phenylpyrimidines” (BASF SE, priority 2016, dated 2021).
Several values for one entry are separate records, joined by “and”; a condition that tells them apart may be missing. Equal entries are not always repeated.

Key:
Type in all cases: in vivo
[1] = test system: Bromus sterilis; assay: greenhouse post-emergence treatment, BROST
Summary of the method: (§1)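 Seeds sown per species in loamy sand substrate (about 3.0% humus); some raised separately and transplanted shortly before treatment. Treatments applied in water post-emergence, plants held at 10-25° C. or 20-35° C. by species, then scored after 2 to 4 weeks, where 100 means total kill and 0 no damage.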

[2] = test system: Ambrosia elatior; assay: greenhouse pre-emergence treatment, AMBEL
Summary of the method: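 Damage rated on 0 to 100 scale (0 = normal growth, 100 = no emergence or total above-ground kill) after 2-4 weeks at species-dependent 10-25° C or 20-35° C. Seeds sown per species in loamy sand, ~3.0% humus, treated right after sowing with aqueous spray of single actives or 10% emulsion-concentrate mixtures, then hooded; additive expectation by Colby.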

[3] = test system: Brachiaria decumbens; assay: greenhouse post-emergence treatment, BRADC
Summary of the method: (§2)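 Plants were grown in loamy sand with about 3.0% humus to 3–15 cm height, then sprayed with actives formulated as 10% by weight emulsion concentrates in water. Held at 10-25° C. or 20-35° C. by species for 2 to 4 weeks; damage scored 0 (none) to 100 (complete destruction).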

[4] = test system: Ambrosia elatior; assay: greenhouse post-emergence treatment, AMBEL
Summary of the method: as §2

[5] = test system: Avena fatua; assay: greenhouse post-emergence treatment, AVEFA
Summary of the method: as §1

[6] = test system: Lolium multiflorum; assay: greenhouse post-emergence treatment, LOLMU
Summary of the method: as §1

[7] = 20 DAT, Ex. 26 solo 62.5 gai/ha
[8] = 20 DAT, AMBEL, Ex. 26 solo 62.5 gai/ha
[9] = 20 DAT, AMBEL, Ex. 26 solo 125 gai/ha
[10] = 20 DAT, AMBEL, Ex. 26 solo 250 gai/ha
[11] = AMBEL, Ex. 26 solo 62.5 gai/ha, 20 DAT
[12] = AMBEL, Ex. 26 solo 125 gai/ha, 20 DAT
[13] = Ex. 26 solo 250 gai/ha, 21 DAT, AMBEL

Measured: % activity

COC(=O)c1nc(C2CC2)ncc1-c1ccc(F)cc1Cl [Ex. 26]
0%: [1]; [7] | [1]; Ex. 26 solo 62.5 gai/ha, 20 DAT, BROST | [2]; 20 DAT, AMBEL, Ex. 26 solo 31.25 gai/ha | [2]; [8] | [2]; [9] | [2]; [10] | [2]; 20 DAT, Ex. 26 solo 31.25 gai/ha | [2]; [7] | [2]; 20 DAT, Ex. 26 solo 125 gai/ha | [2]; 21 DAT, AMBEL, Ex. 26 solo 250 gai/ha | [2]; AMBEL, 20 DAT, solo Ex. 26 62.5 gai/ha | [2]; AMBEL, 20 DAT, solo Ex. 26 125 gai/ha | [2]; AMBEL, Ex. 26 solo 31.25 gai/ha, 20 DAT | [2]; [11] | [2]; [12] | [2]; [13] | [2]; Ex. 26 solo, 31.25 gai/ha, 20 DAT, AMBEL | [2]; Ex. 26 solo, 62.5 gai/ha, 20 DAT, AMBEL | [2]; Ex. 26 solo, 125 gai/ha, 20 DAT, AMBEL | [3]; [7] | [3]; BRADC, 21 DAT, solo Ex. 26 62.5 gai/ha | [3]; Ex. 26 solo 62.5 gai/ha, 20 DAT, BRADC (pyroxsulam table) | [3]; Ex. 26 solo 62.5 gai/ha, 21 DAT, BRADC | [3]; Ex. 26 solo 125 gai/ha, 21 DAT, BRADC | [3]; Ex. 26 solo, 125 gai/ha, 20 DAT, BRADC | [4]; [8] | [4]; [9] | [4]; [7] | [4]; 20 DAT, Ex. 26 solo 125 gai/ha | [4]; 20 DAT, Ex. 26 solo 250 gai/ha | [4]; 21 DAT, Ex. 26 solo 250 gai/ha | [4]; [11] | [4]; [12] | [4]; Ex. 26 solo 62.5 gai/ha, 20 DAT, AMBEL (pyridate table) | [4]; Ex. 26 solo 62.5 gai/ha, 20 DAT, AMBEL (pyroxsulam table) | [4]; Ex. 26 solo 125 gai/ha, 20 DAT, AMBEL (pyridate table) | [4]; Ex. 26 solo 125 gai/ha, 20 DAT, AMBEL (pyroxsulam table) | [4]; [13] | [4]; Ex. 26 solo, 125 gai/ha, 21 DAT, AMBEL | [6]; [7] | [6]; Ex. 26 solo 62.5 gai/ha, 20 DAT, LOLMU (pyridate table) | [6]; Ex. 26 solo 62.5 gai/ha, 21 DAT, LOLMU
85%: [5]; Ex. 26 solo, 250 gai/ha, 20 DAT, AVEFA
35%: [1]; 21 DAT, Ex. 26 solo 250 gai/ha | [1]; Ex. 26 solo 250 gai/ha, 21 DAT, BROST | [3]; Ex. 26 solo 250 gai/ha, 20 DAT, BRADC (pyroxsulam table) | [5]; [7] | [6]; Ex. 26 solo 125 gai/ha, 20 DAT, LOLMU (pyridate table)
25%: [1]; Ex. 26 solo, 250 gai/ha, 21 DAT, BROST
15%: [1]; Ex. 26 solo, 125 gai/ha, 21 DAT, BROST
5%: [1]; 21 DAT, Ex. 26 solo 125 gai/ha | [1]; Ex. 26 solo 125 gai/ha, 21 DAT, BROST | [1]; Ex. 26 solo, 125 gai/ha, 20 DAT, BROST | [4]; Ex. 26 solo 62.5 gai/ha, 21 DAT, AMBEL
55%: [6]; 21 DAT, Ex. 26 solo 250 gai/ha
60% and 35% and 40%: [1]; BROST, Ex. 26 solo 125 gai/ha, 20 DAT
60%: [3]; 20 DAT, BRADC, Ex. 26 solo 250 gai/ha | [4]; AMBEL, Ex. 26 solo 250 gai/ha, 20 DAT
65%: [1]; 20 DAT, BROST, Ex. 26 solo 250 gai/ha | [1]; BROST, Ex. 26 solo 250 gai/ha, 20 DAT | [5]; 20 DAT, AVEFA, Ex. 26 solo 62.5 gai/ha | [5]; Ex. 26 solo 62.5 gai/ha, 20 DAT, AVEFA | [5]; Ex. 26 solo, 125 gai/ha, 20 DAT, AVEFA | [6]; 20 DAT, LOLMU, Ex. 26 solo 250 gai/ha
60% and 35%: [1]; 20 DAT, BROST, Ex. 26 solo 125 gai/ha
20%: [3]; Ex. 26 solo 62.5 gai/ha, 20 DAT, BRADC (pyridate table) | [3]; Ex. 26 solo 125 gai/ha, 20 DAT, BRADC (pyroxsulam table) | [4]; Ex. 26 solo 250 gai/ha, 20 DAT, AMBEL (pyroxsulam table) | [4]; Ex. 26 solo, 250 gai/ha, 21 DAT, AMBEL
50%: [5]; Ex. 26 solo 62.5 gai/ha, 21 DAT, AVEFA
35% and 50% and 30%: [3]; 20 DAT, Ex. 26 solo 250 gai/ha
65% and 55%: [6]; 20 DAT, LOLMU, Ex. 26 solo 125 gai/ha
75%: [5]; 20 DAT, AVEFA, Ex. 26 solo 125 gai/ha | [5]; 20 DAT, AVEFA, Ex. 26 solo 250 gai/ha | [5]; AVEFA, Ex. 26 solo 250 gai/ha, 20 DAT | [5]; Ex. 26 solo 250 gai/ha, 20 DAT, AVEFA
35% and 55% and 30%: [1]; 20 DAT, Ex. 26 solo 250 gai/ha
30% and 40%: [3]; BRADC, Ex. 26 solo 125 gai/ha, 20 DAT
10%: [3]; BRADC, 21 DAT, solo Ex. 26 125 gai/ha | [3]; Ex. 26 solo, 125 gai/ha, 21 DAT, BRADC | [6]; 21 DAT, Ex. 26 solo 125 gai/ha | [6]; Ex. 26 solo 62.5 gai/ha, 20 DAT, LOLMU (pyroxsulam table)
30%: [3]; Ex. 26 solo, 250 gai/ha, 20 DAT, BRADC
70%: [5]; 20 DAT, Ex. 26 solo 250 gai/ha | [5]; AVEFA, 21 DAT, solo Ex. 26 62.5 gai/ha | [5]; AVEFA, 21 DAT, solo Ex. 26 125 gai/ha | [5]; AVEFA, Ex. 26 solo 125 gai/ha, 20 DAT | [5]; Ex. 26 solo 125 gai/ha, 20 DAT, AVEFA | [5]; Ex. 26 solo, 125 gai/ha, 21 DAT, AVEFA
40%: [3]; BRADC, 21 DAT, solo Ex. 26 250 gai/ha | [3]; Ex. 26 solo 125 gai/ha, 20 DAT, BRADC (pyridate table) | [3]; Ex. 26 solo, 250 gai/ha, 21 DAT, BRADC | [4]; [10]
30% and 55%: [3]; 20 DAT, BRADC, Ex. 26 solo 125 gai/ha
